Reference: patent publication US20230302104A1, “TREATMENT AND/OR PREVENTION OF A DISEASE OR A SYNDROME RELATED TO A VIRUS INFECTION” (priority 2020, published 2023)

Columns and labels:
[1] = tested on: SARS-CoV-2 spike pseudovirus entry in ACE2 overexpressing A549 human lung alveolar basal epithelium cells; format: cell-based
[2] = tested on: SARS-CoV-2 spike pseudotyped lentivirus entry in HeLa cells overexpressing TMPRSS2; format: cell-based; details: 10 µM

Substance	effect on SARS-CoV-2 pseudoviral entry in combination with IFN-beta-1a [1]	inhibitory effect on SARS-CoV-2 pseudoviral cell-entry [2]	SARS-CoV-2 pseudovirus entry [1]
plasma derived AAT	additive inhibitory effect	no inhibitory effect	–
rhAAT	–	–	inhibits viral entry of several viruses
